Results reported in PubChem BioAssay (NCI).
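Five compound concentrations were applied to cells in 96-well plates for 48 hours; endpoints were derived by simple linear interpolation of the resulting dose-response curve. TGI denotes the concentration required for complete inhibition of growth.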

Legend:
Assay in all cases: inhibition of tumour cell growth, NCI panel, 48 h
786-0 renal = system: 786-0 renal
A498 renal = system: A498 renal
A549 NSCLC = system: A549 NSCLC
ACHN renal = system: ACHN renal
BT-549 breast = system: BT-549 breast
CAKI-1 renal = system: CAKI-1 renal
CCRF-CEM leukemia = system: CCRF-CEM leukemia
COLO 205 colon = system: COLO 205 colon
DU-145 prostate = system: DU-145 prostate
EKVX NSCLC = system: EKVX NSCLC
HCC-2998 colon = system: HCC-2998 colon
HCT-116 colon = system: HCT-116 colon
HCT-15 colon = system: HCT-15 colon
HL-60(TB) leukemia = system: HL-60(TB) leukemia
HOP-62 NSCLC = system: HOP-62 NSCLC
HOP-92 NSCLC = system: HOP-92 NSCLC
HS 578T breast = system: HS 578T breast
HT29 colon = system: HT29 colon
IGROV1 ovarian = system: IGROV1 ovarian
K-562 leukemia = system: K-562 leukemia
KM12 colon = system: KM12 colon
LOX IMVI melanoma = system: LOX IMVI melanoma
M14 melanoma = system: M14 melanoma
MCF7 breast = system: MCF7 breast
MDA-MB-231 breast = system: MDA-MB-231 breast
MDA-MB-435 = system: MDA-MB-435
MOLT-4 leukemia = system: MOLT-4 leukemia
NCI-H226 lung = system: NCI-H226 lung
NCI-H23 lung = system: NCI-H23 lung
NCI-H460 lung = system: NCI-H460 lung
NCI-H522 lung = system: NCI-H522 lung
NCI/ADR-RES ovarian = system: NCI/ADR-RES ovarian
OVCAR-3 ovarian = system: OVCAR-3 ovarian
OVCAR-4 ovarian = system: OVCAR-4 ovarian
OVCAR-5 ovarian = system: OVCAR-5 ovarian
OVCAR-8 ovarian = system: OVCAR-8 ovarian
PC-3 prostate = system: PC-3 prostate
RPMI-8226 leukemia = system: RPMI-8226 leukemia
RXF 393 renal = system: RXF 393 renal
SF-268 CNS = system: SF-268 CNS
SF-295 CNS = system: SF-295 CNS
SF-539 CNS = system: SF-539 CNS
SK-MEL-2 melanoma = system: SK-MEL-2 melanoma
SK-MEL-28 melanoma = system: SK-MEL-28 melanoma
SK-MEL-5 melanoma = system: SK-MEL-5 melanoma
SK-OV-3 ovarian = system: SK-OV-3 ovarian
SN12C renal = system: SN12C renal
SNB-19 CNS = system: SNB-19 CNS
SNB-75 CNS = system: SNB-75 CNS
SR leukemia = system: SR leukemia
SW-620 colon = system: SW-620 colon
T-47D breast = system: T-47D breast
TK-10 renal = system: TK-10 renal
U251 CNS = system: U251 CNS
UACC-257 melanoma = system: UACC-257 melanoma
UACC-62 melanoma = system: UACC-62 melanoma
UO-31 renal = system: UO-31 renal
MALME-3M melanoma = system: MALME-3M melanoma

Compound: COCN1C(=O)[C@@H]2CCCN2C(=O)c2ccc([N+](=O)[O-])cc21
- TGI (786-0 renal): > 100 µM
- TGI (A498 renal): > 100 µM
- TGI (A549 NSCLC): > 100 µM
- TGI (ACHN renal): > 100 µM
- TGI (BT-549 breast): > 100 µM
- TGI (CAKI-1 renal): > 100 µM
- TGI (CCRF-CEM leukemia): > 100 µM
- TGI (COLO 205 colon): > 100 µM
- TGI (DU-145 prostate): > 100 µM
- TGI (EKVX NSCLC): > 100 µM
- TGI (HCC-2998 colon): > 100 µM
- TGI (HCT-116 colon): > 100 µM
- TGI (HCT-15 colon): > 100 µM
- TGI (HL-60(TB) leukemia): > 100 µM
- TGI (HOP-62 NSCLC): > 100 µM
- TGI (HOP-92 NSCLC): > 100 µM
- TGI (HS 578T breast): > 100 µM
- TGI (HT29 colon): > 100 µM
- TGI (IGROV1 ovarian): > 100 µM
- TGI (K-562 leukemia): > 100 µM
- TGI (KM12 colon): > 100 µM
- TGI (LOX IMVI melanoma): > 100 µM
- TGI (M14 melanoma): > 100 µM
- TGI (MCF7 breast): > 100 µM
- TGI (MDA-MB-231 breast): > 100 µM
- TGI (MDA-MB-435): > 100 µM
- TGI (MOLT-4 leukemia): > 100 µM
- TGI (NCI-H226 lung): > 100 µM
- TGI (NCI-H23 lung): > 100 µM
- TGI (NCI-H460 lung): > 100 µM
- TGI (NCI-H522 lung): > 100 µM
- TGI (NCI/ADR-RES ovarian): > 100 µM
- TGI (OVCAR-3 ovarian): > 100 µM
- TGI (OVCAR-4 ovarian): > 100 µM
- TGI (OVCAR-5 ovarian): > 100 µM
- TGI (OVCAR-8 ovarian): > 100 µM
- TGI (PC-3 prostate): > 100 µM
- TGI (RPMI-8226 leukemia): > 100 µM
- TGI (RXF 393 renal): > 100 µM
- TGI (SF-268 CNS): > 100 µM
- TGI (SF-295 CNS): > 100 µM
- TGI (SF-539 CNS): > 100 µM
- TGI (SK-MEL-2 melanoma): > 100 µM
- TGI (SK-MEL-28 melanoma): > 100 µM
- TGI (SK-MEL-5 melanoma): > 100 µM
- TGI (SK-OV-3 ovarian): > 100 µM
- TGI (SN12C renal): > 100 µM
- TGI (SNB-19 CNS): > 100 µM
- TGI (SNB-75 CNS): > 100 µM
- TGI (SR leukemia): > 100 µM
- TGI (SW-620 colon): > 100 µM
- TGI (T-47D breast): > 100 µM
- TGI (TK-10 renal): > 100 µM
- TGI (U251 CNS): > 100 µM
- TGI (UACC-257 melanoma): > 100 µM
- TGI (UACC-62 melanoma): > 100 µM
- TGI (UO-31 renal): > 100 µM

Compound: COc1ccc(C2C(C=O)C(N3CCN(C)CC3)=Nc3nc4ccccc4n32)cc1 (centres undefined)
- TGI (786-0 renal): > 100 µM
- TGI (A498 renal): 29.1 µM
- TGI (A549 NSCLC): 38.5 µM
- TGI (ACHN renal): 41.8 µM
- TGI (BT-549 breast): 29.4 µM
- TGI (CAKI-1 renal): 52.4 µM
- TGI (CCRF-CEM leukemia): 17.8 µM
- TGI (COLO 205 colon): 36 µM
- TGI (DU-145 prostate): 49.3 µM
- TGI (EKVX NSCLC): 97.3 µM
- TGI (HCC-2998 colon): 33.9 µM
- TGI (HCT-116 colon): 29.8 µM
- TGI (HCT-15 colon): 46.5 µM
- TGI (HL-60(TB) leukemia): 18.4 µM
- TGI (HOP-62 NSCLC): 28.7 µM
- TGI (HOP-92 NSCLC): 24.3 µM
- TGI (HS 578T breast): > 100 µM
- TGI (HT29 colon): 36.8 µM
- TGI (IGROV1 ovarian): 31.7 µM
- TGI (K-562 leukemia): 14.9 µM
- TGI (KM12 colon): 50.6 µM
- TGI (LOX IMVI melanoma): 34.1 µM
- TGI (M14 melanoma): 41.5 µM
- TGI (MALME-3M melanoma): 26.3 µM
- TGI (MCF7 breast): 36.3 µM
- TGI (MDA-MB-231 breast): 31.4 µM
- TGI (MDA-MB-435): 39.7 µM
- TGI (MOLT-4 leukemia): 12.3 µM
- TGI (NCI-H226 lung): 38.2 µM
- TGI (NCI-H23 lung): 44.8 µM
- TGI (NCI-H460 lung): 91.1 µM
- TGI (NCI-H522 lung): 25.6 µM
- TGI (NCI/ADR-RES ovarian): 53.7 µM
- TGI (OVCAR-3 ovarian): 40.5 µM
- TGI (OVCAR-4 ovarian): 48.2 µM
- TGI (OVCAR-5 ovarian): 59.7 µM
- TGI (OVCAR-8 ovarian): 33.1 µM
- TGI (PC-3 prostate): 36.9 µM
- TGI (RPMI-8226 leukemia): 17.3 µM
- TGI (RXF 393 renal): 39.2 µM
- TGI (SF-268 CNS): 51.6 µM
- TGI (SF-295 CNS): 50.9 µM
- TGI (SF-539 CNS): 54.5 µM
- TGI (SK-MEL-2 melanoma): 31.2 µM
- TGI (SK-MEL-28 melanoma): 34.8 µM
- TGI (SK-MEL-5 melanoma): 31.5 µM
- TGI (SN12C renal): 40.9 µM
- TGI (SNB-19 CNS): 41 µM
- TGI (SNB-75 CNS): 31.3 µM
- TGI (SR leukemia): 2.35 µM
- TGI (SW-620 colon): 65.9 µM
- TGI (T-47D breast): 40.6 µM
- TGI (TK-10 renal): 40 µM
- TGI (U251 CNS): 39.3 µM
- TGI (UACC-257 melanoma): 41 µM
- TGI (UACC-62 melanoma): 36.5 µM
- TGI (UO-31 renal): 32.4 µM
